Experimental findings from ChEMBL document CHEMBL3769369, “Ligand-based modeling of diverse aryalkylamines yields new potent P-glycoprotein inhibitors” (Eur J Med Chem, 2016) are described below.

Data set [1] is described as follows: Cytotoxicity against human fibroblast cells assessed as viable cells at 10 uM by trypan blue staining based assay. In kind it is cell-based. Conditions: read-out: Activity.
Data set [2] is described as follows: Inhibition of P-gp in human MCF7/D70 cells assessed as decrease in doxorubicin IC50 at 1 uM after 72 hrs by MTT assay (Rvb doxorubicin alone IC50 = 0.906 +/- 0.02 uM). In kind it is cell-based. Conditions: MCF7/D70, 72 h. On the technique in general: Tetrazolium dyes change colour on reduction, which living cells bring about.
Data set [3] is described as follows: Cytotoxicity against human fibroblast cells assessed as viable cells at 50 uM by trypan blue staining based assay. In kind it is cell-based. Conditions: read-out: Activity.
A short description of data set [4]: Inhibition of P-gp in human MCF7/D70 cells assessed as decrease in doxorubicin IC50 at 50 uM after 72 hrs by MTT assay (Rvb doxorubicin alone IC50 = 0.906 +/- 0.02 uM). Conditions: MCF7/D70, 72 h. In kind it is cell-based.
Data set [5] can be described thus: Inhibition of P-gp in human MCF7/D70 cells assessed as decrease in doxorubicin IC50 at 10 uM after 72 hrs by MTT assay (Rvb doxorubicin alone IC50 = 0.906 +/- 0.02 uM). In kind it is cell-based. The note with it: MCF7/D70, 72 h.
Data set [6] relates to MCF7. The data set can be described thus: Cytotoxicity against human MCF7 cells assessed as viable cells at 10 uM by trypan blue staining based assay. In kind it is functional. The note with it: read-out: Activity.
Data set [7] deals with MCF7. The experiment in a line: Cytotoxicity against human MCF7 cells assessed as viable cells at 50 uM by trypan blue staining based assay. In kind it is functional. The note with it: read-out: Activity.

A word on the IC50: it is the point on the concentration scale where inhibition reaches its midpoint. For the molecule `COc1cc(-n2c(CCc3nc(-c4ccc(Cl)cc4)no3)n[nH]c2=S)c(OC)cc1Cl`, the viability at 10 µM in data set [1] was 74%; in the data set with MCF7 [6] it was 86%. For the same molecule, the 50% inhibitory concentration (IC50) in data set [2] was found to be 940 nM; in data set [4] it was 300 nM; in data set [5], 310 nM. Also, the viability at 50 µM in data set [3] was found to be 61%; in the data set on MCF7 [7] it was 71%.
